These results are taken from publication PMC4822341 (Cell Discovery, 2015).

What is called IC50 is the concentration that inhibits the measured activity by half. By EC50 is commonly meant the midpoint of the concentration-response curve.

For data set [1], the system named is IL-6 release from A549 cells. The data set can be described thus: Cytokine inhibition assay, IL-6 release from A549 cells. The format is cell-based. The note with it: Homo sapiens, TNFα 2 ng ml^-1, read-out: IC50 (suppression of IL-6 release). As for the experimental part: A549 cells into 24-well plates were split at 40 000 cells/well. After 1 day growth, cells were treated with various steroids 1 h before overnight induction of inflammation by 2 ng ml^–1 TNFα according to literature. Sixteen hours after treatment, cell culture supernatants were subjected to anti-IL-6 Elisa (R&D Quantikine Elisa Human IL-6 Kit) according to the manual.

Data set [2] concerns OVA-induced asthma. The data set can be described thus: OVA-induced mouse asthma model. The format is in vivo, Balb/c mice. The note with it: for repression of airway hyper-responsiveness (AHR): Balb/c mice; for % repression of AHR: ACH challenge 4 mg kg^-1. The method, then:
As described before, 7–9-week-old female Balb/c mice (Taconic) were sensitized on days 0, 7 and 14 by i.p. injection of 50 μg OVA/1 mg alum in a total of 200 μl saline. Control mice received an equal volume of alum only. Mice were lightly anesthetized by isoflurane inhalation and challenged with intranasal OVA (100 μg in 30 μl saline) or saline on days 21–23, and were i.p. injected with different steroids. Twenty-four hours after the last challenge and treatment, pulmonary resistance was measured in response to a range of concentrations of intravenous acetylcholine using the forced oscillation technique with the FlexiVent system (SCIREQ) as previously described. Serum samples were analyzed for OVA-specific IgE using an ELISA (BD Biosciences, clone R35-118). Total and differential cell counts were determined by hemocytometer and by light microscopic evaluation of more than 300 cells per slide as previously described. After lavage, lungs were inflated with 10% buffered formalin to 25 cm H2O and transferred to 10% buffered formalin. Sections (5 μm) were stained with H&E for semi-quantitative assessment of inflammation and PAS for evaluation of mucus production. To quantify inflammation, H&E-stained lung sections were de-identified for blinding and scored for peribronchial and perivascular inflammatory cell infiltration: grade 0, no infiltration; grade 1, <25% of examined area; grade 2, 25–50%; grade 3, 51–75%; and grade 4, >75%. To quantify goblet cell hyperplasia, PAS stained lung sections were de-identified for blinding and scored for the percentage of PAS positive cells among airway epithelial cells: grade 0: none; grade 1 <25% of airway epithelial cells; grade 2, 25–50%; grade 3, 51–75%; and grade 4, >75%.

The nature of data set [3]: Bone density (μCT) and biomechanics testing of femurs. Format: in vivo, DBA/1 mice. The note with it: 1 mg kg^-1 daily, 2 weeks. The method, then:
Femur bones were collected and scanned by μCT (Skyscan 1172 uCT) for quantification of trabecular and cortical bone parameters. The thresholds for μCT quantification of trabecular and cortical bone parameters were set at 80–100 and 100–110, respectively. μCT analyses of cortical bone parameters were performed on 100-μCT slices (1 mm total) from the middle shaft of femurs; trabecular parameters were assessed in 100-μCT slices (1 mm total) immediately below the distal growth plate of the femur. Following uCT scans, the femurs were individually tested on a TestResources 570 Force Transducer. Bones were thawed in PBS before being tested, to ensure no brittleness was due to freezing. […] Data points were collected at a frequency of 50 Hz and a deflection rate of 0.005 mm s^–1.

A short description of data set [4]: Body weight (growth inhibition) of DBA/1 mice. The format is in vivo. The note with it: 1 mg kg^-1 daily i.p., 2 weeks, 7-week-old mice. The method, then:
(§1) Figure 5 Examination of side effects of VSGC12 and FF at the effective dose. (a) Body weight of DBA/1 mice treated with the indicated daily dose of steroids for 2 weeks. Mice body weight was measured at day 0, 7 and 14. (b) Insulin-tolerance test of mice treated with the indicated daily doses of steroids for 7 days. Glucose level was measured at day 7 at various time points before and after insulin injection. Data were plotted as percent of the glucose level of time 0. (c) Plasma insulin levels of mice treated with the indicated daily doses of steroid for 7 days. (d) Spleen size and weight for mice treated with the indicated daily doses of steroid for 2 weeks. (e) Cortical bone thickness of femurs of mice treated with the indicated daily doses of steroid for 2 weeks. (f) Bone stiffness of femurs of mice treated with the indicated daily doses of steroid for 2 weeks. Mouse strain: DBA/1. Each treatment n=5, error bars indicate s.e.m., *P<0.05; **P<0.01; ***P<0.001.

The nature of data set [5]: Spleen size and weight (spleen atrophy). The format is in vivo, DBA/1 mice. To be noted: 1 mg kg^-1 daily, 2 weeks. The method, then: as §1
Data set [6] in a line: Insulin-tolerance test and plasma insulin level. The note with it: 1 mg kg^-1 daily, 7 days.
Description: DBA/1 mice (Taconic) were weighted just before the experiment. After 4 h fasting, mice were i.p. injected with 0.75 U kg^–1 of insulin (Huamlin R). Blood samples were taken from the tail at time 0 (before insulin injection), 15, 30, 45, 60, 90 and 120 min after injection. Plasma glucose levels were measured using an AlphaTrak glucose meter. All data were plotted as percent of glucose level at time 0. Endogenous insulin levels were measured using the Ultra Sensitive Mouse Insulin ELISA kit (Crystal Chem, Downers Groove, IL, USA).
The test system of data set [7] is RAW264.7 cells. In words: Gene expression (microarray and quantitative PCR) in LPS-stimulated RAW264.7 cells. The format is cell-based, mouse. To be noted: RAW264.7, LPS, steroid 100 nM. As for the experimental part:
Mouse macrophage RAW264.7 cells were grown in 6-well plates to reach 80% confluence. The cells were pretreated with different steroids at 100 nM 1 h before overnight induction of inflammation by 1 μg ml^–1 LPS. Total RNA was isolated using a Qiagen mini RNA extraction kit (Valencia, CA, USA). Complementary DNA was synthesized from total RNA with an Invitrogen Superscript cDNA synthesis kit (Carlsbad, CA, USA). Target genes were quantified with a Power SYBR Green Real-Time PCR kit (Carlsbad, CA, USA) (ABI) in a StepOnePlus real-time PCR instrument (Applied Biosystems, Carlsbad, CA, USA). In every case, GAPDH (glyceraldehyde-3-phosphate dehydrogenase) was used as an internal control and data were analyzed by the ΔΔCt method. The specificity of target primers was tested both in a dissociation (melting) curve (Supplementary Figure S4) and against a water control. Primer sequence information is included in Supplementary Figure S4.
RAW264.7 cells were treated with designated steroids at 100 nM 1 h before overnight LPS stimulation of inflammation. Each treatment was duplicated. The following day, RNA samples were isolated using a Qiagen mini RNA extraction kit and applied to the Agilent Whole Mouse Genome 8x60K gene expression platform. Data were analyzed by the limma package in R program. Heat maps were generated by the HeatMap 2 package. Pathway analysis was done via DAVID Bioinformatics Resources 6.7 (NIAID) and Venn diagrams were generated by BioVenn.

Data set [8] deals with granulocyte macrophage colony-stimulating factor release. Also on record: method as in PMID 10433509. The note with it: A549 cells; read-out: IC50 to inhibit granulocyte macrophage colony-stimulating factor release; cited from earlier work.
The target of data set [9] is β2-adrenergic receptor induction. Also on record: method as in PMID 10433509. The note with it: A549 cells; cited from earlier work.
For data set [10], the target named is T1, GR (Homo sapiens, UniProt P04150).
T1 construct: expressed in transfected cells; host or cells: AD293
T1 sequence (P04150 1-777): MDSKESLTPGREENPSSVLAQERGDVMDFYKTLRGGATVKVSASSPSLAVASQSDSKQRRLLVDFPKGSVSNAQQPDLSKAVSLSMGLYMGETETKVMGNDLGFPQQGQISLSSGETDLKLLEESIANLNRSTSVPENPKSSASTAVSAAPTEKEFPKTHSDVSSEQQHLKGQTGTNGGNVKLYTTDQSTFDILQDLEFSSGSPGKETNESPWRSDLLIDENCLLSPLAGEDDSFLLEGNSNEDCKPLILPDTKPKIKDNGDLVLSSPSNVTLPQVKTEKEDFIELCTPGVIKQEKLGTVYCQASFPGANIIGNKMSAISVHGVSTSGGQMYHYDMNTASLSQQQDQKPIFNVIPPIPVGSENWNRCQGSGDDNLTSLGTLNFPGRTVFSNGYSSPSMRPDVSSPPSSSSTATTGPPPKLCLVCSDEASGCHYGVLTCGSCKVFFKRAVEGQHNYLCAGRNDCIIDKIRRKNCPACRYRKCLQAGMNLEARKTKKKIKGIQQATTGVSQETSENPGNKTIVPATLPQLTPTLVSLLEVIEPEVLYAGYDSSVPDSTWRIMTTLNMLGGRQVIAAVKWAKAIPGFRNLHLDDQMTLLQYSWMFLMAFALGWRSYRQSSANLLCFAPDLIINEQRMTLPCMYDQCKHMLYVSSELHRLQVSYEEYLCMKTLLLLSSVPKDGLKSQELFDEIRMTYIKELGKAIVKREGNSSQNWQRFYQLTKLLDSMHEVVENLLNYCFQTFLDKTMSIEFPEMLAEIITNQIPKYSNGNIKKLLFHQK
In words: MMTV-Luc induction reporter assay in AD293 cells. To be noted: 16 h. Format: cell-based. As for the experimental part:
(§2) Similar to previous reports, for induction 100 ng pHHLuc (MMTV-Luc) plasmid, 0.1 ng pRShGR together with 5 ng phRGtkRenilla were transfected by X-tremeGENE 9 (Roche) into AD293 cells per well in 24-well plate. For transrepression, 10 ng AP-1-Luc or 10ng pNF-κB-luc, 100 ng pRShGR and 5 ng phRGtkRenilla were transfected into AD293 cells per well. We used the same transfection protocol for the MR and PR assays, except of the use of 0.1 ng MR or PR plasmid to substitute GR. One day after transfection, for induction, cells were directly treated by steroids for 16 h; for repression, cells were treated with either PMA at 0.6 ng ml^–1 (for AP-1 reporter) or TNFα at 2 ng ml^–1 (for NF-κB reporter), together with various steroids. Cells were collected by addition of 1× Passive Lysis Buffer (Promega, Madison, WI, USA), and luciferase activity was assayed by the Dual-Glo Luciferase system (Promega). Data were plotted as firefly luciferase activity normalized to Renilla luciferase activity in Relative Luciferase Units.
(In general: Reporter assays use an easily measured gene product as a stand-in for the process of interest.)

For data set [11], the target named is T1, GR. The data set can be described thus: AP-1-Luc repression reporter assay in AD293 cells. The format is cell-based. The note with it: AP-1 reporter, PMA 0.6 ng ml^-1. As for the experimental part:
as §2

Data set [12] deals with T1, GR. The note with it: cited from earlier work.
Data set [13] deals with T1, GR. The data set can be described thus: NF-κB-Luc repression reporter assay in AD293 cells. The format is cell-based. The note with it: TNFα 2 ng ml^-1. The method, then:
as §2
Error bars indicate SD, n=3.

The target in data set [14] is T1, GR. In words: In vitro H3-Dex competition GR ligand-binding assay. The note with it: H3-DEX 15 nM, GR cytosol. From the text: The in vitro GR binding assay is similar to the one described previously. […] Data were plotted as a standard competition curve by GraphPad Prism 5.

Values joined by “and” are separate entries in the source; they are usually repeats but may differ in a detail not shown here. Identical values can stand only once. Where only a bound is given, the exact number is not on record here.

Consider `C[C@@H]1C[C@H]2[C@@H]3CCC4=CC(=O)C=C[C@]4(C)[C@@]3(F)[C@@H](O)C[C@]2(C)[C@@]1(O)C(=O)CO` [DEX, dexamethasone, reference compound], for which the IC50 in data set [1] was 0.8 nM. In data set [2] (1 mg kg^-1 i.p.), the “infiltration of immune responsive cells into the lungs (total and differential cell count)” value is reported as “only a mild effect”; the “repression of airway hyper-responsiveness (AHR)” value (“repression … (AHR)” for short) is reported as “neither VSG22 nor DEX can effectively repress the airway hyper-responsiveness”.

In the case of `C[C@@H]1C[C@H]2[C@@H]3C[C@H](F)C4=CC(=O)C=C[C@]4(C)[C@@]3(F)[C@@H](O)C[C@]2(C)[C@@]1(OC(=O)c1ccco1)C(=O)SCF` [FF, fluticasone furoate, reference compound], the IC50 in data set [1] came out at 0.03 nM. In [2] (0.125 mg/kg), the “% repression of total differentiated cells” value turned out to be 14%; the “% repression of AHR” value is < 28% and 28%. Also, in [2] (0.25 mg/kg), the “% repression of total differentiated cells” value is listed as 30%; the “% repression of AHR” value is < 35% and 34%. Besides, in data set [2] (1 mg kg^-1 i.p.), the “infiltration of immune responsive cells into the lungs (total and differential cell count)” value was “strongly repressed the infiltration of immune responsive cells into the lungs”; the “repression … (AHR)” value was “strongly suppress the AHR to the basal level”. Moreover, in data set [2] (1 mg kg^-1 i.p., grade 0-4), the “histology score, PAS staining” value turned out to be 1.5; the “histology score, hematoxylin and eosin staining” value is on record as 0.83. Also, the “% repression of AHR” value in [2] (1 mg/kg, OVA+DMSO 0, saline 100) is given as 95%. Moreover, in data set [2] (1 mg/kg, saline 100, OVA+DMSO 0), the “% repression of total differentiated cells” value turned out to be 94%. Moreover, the “minimal dose to maximally repress the inflammation (maximal effective dose)” value in data set [2] (judged from AHR, i.p.) is recorded as 1 mg kg^–1. Also, the OVA-IgE levels entry in [2] (lower doses (0.25, 0.125, 0.0625 mg kg^-1)) was “unexpectedly higher than the vehicle control”. Moreover, the “bone strength (stiffness) of femurs” value in [3] is given as “dramatic decrease of bone strength in terms of stiffness”. Also, the “cortical bone thickness of femurs” value in data set [3] (μCT) was “dramatic decrease of the cortical bone thickness”. Further, the “growth inhibition (body weight)” value in data set [4] is listed as “significant growth inhibition”. Besides, in data set [5], the “atrophy of the spleen” value is recorded as “dramatic shrinkage of the spleen”. Further, in data set [6], the “insulin resistance in insulin-tolerance test” value is “hyper-insulin resistance” and the “plasma (endogenous) insulin level” value is listed as “dramatic increase of the endogenous insulin level”. The “inhibition activity of pro-inflammatory cytokines (microarray, normalized to DEX)” value in [7] was “much stronger inhibition activity than DEX”.

With `CCC(=O)O[C@]1(C(=O)SCF)[C@H](C)C[C@H]2[C@@H]3C[C@H](F)C4=CC(=O)C=C[C@]4(C)[C@@]3(F)[C@@H](O)C[C@@]21C` [FP, fluticasone propionate], in data set [8], the IC50 is 0.018 nM. Moreover, the EC50 in data set [9] is 1.1 nM.

`CON(C)C(=O)C1(OC(=O)c2ccco2)CCC2C3CCC4=Cc5c(cnn5-c5ccccc5)CC4(C)C3C(O)CC21C` (stereo not drawn) [VSG22]: the IC50 in data set [1] was determined as 0.07 nM; in data set [11] it was 0.04 nM; in data set [13], 0.1 nM; in [14], 4.1 nM. The compound further returned an EC50 in data set [10] of 0.74 nM. In addition, the “repression … (AHR)” value in data set [2] (1 mg kg^-1 i.p.) is “neither VSG22 nor DEX can effectively repress the airway hyper-responsiveness”. Also, the “increase in potency relative to the original backbone VSG24” value in data set [12] is on record as “more than 1 000 fold”. In addition, in data set [7], the “inhibition activity of pro-inflammatory cytokines (microarray, normalized to DEX)” value is recorded as “much stronger inhibition activity than DEX”.
